Data as given in ChEMBL document CHEMBL1201862, “PubChem BioAssay data set” (2004).
Values belong to the compound of their own block, whether it stands above or below them. Activity calls are given as the source filed them.

Tests used:
Galanin receptor type 3 = Galanin receptor type 3 (Homo sapiens, UniProt O60755); assay: Fluorescence-based cell-based primary high throughput dose response assay to identify antagonists of the Galanin Receptor 3 (GalR3).; assay type: functional
[1] = molecular target: Neuropeptide Y receptor type 1 (Homo sapiens, UniProt P25929); assay: NPY-Y1 receptor antagonist potency, dose response, cell-based (AID 1277); assay type: functional
[2] = molecular target: T1, Short transient receptor potential channel 4 (Mus musculus, UniProt Q9QUQ5); assay: mouse TRPC4 channel activators, dose response, cell-based, HEK293 TRPC4/mu-opioid, Fluo-4 calcium (AID 434937); assay type: functional
T1 sequence (Q9QUQ5 whole entry): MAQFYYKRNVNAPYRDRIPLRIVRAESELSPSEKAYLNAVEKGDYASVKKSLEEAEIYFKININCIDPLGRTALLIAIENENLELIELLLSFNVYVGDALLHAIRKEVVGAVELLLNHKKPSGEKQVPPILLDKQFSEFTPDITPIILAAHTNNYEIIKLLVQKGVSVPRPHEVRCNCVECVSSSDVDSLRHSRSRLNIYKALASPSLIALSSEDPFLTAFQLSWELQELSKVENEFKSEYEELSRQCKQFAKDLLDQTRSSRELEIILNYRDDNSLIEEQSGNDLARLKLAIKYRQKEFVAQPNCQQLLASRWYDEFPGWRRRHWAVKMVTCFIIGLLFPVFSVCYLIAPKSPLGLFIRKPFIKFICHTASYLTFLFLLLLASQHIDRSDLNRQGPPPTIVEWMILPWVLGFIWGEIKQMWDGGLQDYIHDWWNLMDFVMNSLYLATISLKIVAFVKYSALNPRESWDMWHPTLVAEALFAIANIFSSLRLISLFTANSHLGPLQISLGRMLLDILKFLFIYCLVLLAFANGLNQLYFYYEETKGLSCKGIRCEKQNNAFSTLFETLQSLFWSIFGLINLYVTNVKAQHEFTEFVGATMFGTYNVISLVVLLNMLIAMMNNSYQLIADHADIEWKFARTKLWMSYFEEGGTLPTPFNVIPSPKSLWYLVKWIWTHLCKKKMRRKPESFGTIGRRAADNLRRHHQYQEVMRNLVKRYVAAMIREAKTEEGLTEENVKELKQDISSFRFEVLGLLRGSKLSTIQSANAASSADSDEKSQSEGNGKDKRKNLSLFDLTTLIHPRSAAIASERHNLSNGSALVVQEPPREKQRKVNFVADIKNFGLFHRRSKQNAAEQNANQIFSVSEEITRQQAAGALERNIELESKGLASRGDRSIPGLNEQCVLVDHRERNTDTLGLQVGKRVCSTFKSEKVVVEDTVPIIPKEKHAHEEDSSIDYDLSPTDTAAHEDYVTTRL

cells = assay type: functional, cell-based; settings: HEK-CNG
[3] = molecular target: Neuropeptide Y receptor type 2 (Homo sapiens, UniProt P49146); assay: NPY-Y2 antagonist potency, selectivity check, dose response, counter-screen for NPY-Y1 antagonist project, cell-based (AID 1278); assay type: functional
[4] = molecular target: Lytic switch protein BZLF1 (Epstein-Barr virus (strain B95-8) (HHV-4) (Human herpesvirus 4), UniProt P03206); assay: EBV ZTA inhibitors, dose response, counter-screen for EBNA-1 inhibitor project, biochemical, fluorescence polarization, Epstein-Barr virus, 1536-well (AID 2377); set-up: species or system human gammaherpesvirus 4;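 also: fluorescence polarization of Cy5-labelled ZRE DNA probe bound by purified Zta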
[5] = molecular target: Epstein-Barr nuclear antigen 1 (Epstein-Barr virus (strain B95-8) (HHV-4) (Human herpesvirus 4), UniProt P03211); assay: EBNA-1 inhibitors, dose response, biochemical, fluorescence polarization, 1536-well (AID 2381); set-up: species or system human gammaherpesvirus 4;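 also: fluorescence polarization of a Cy5 DNA probe bound by EBNA-1 protein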
[6] = molecular target: Transitional endoplasmic reticulum ATPase (Homo sapiens, UniProt P55072, C522A); assay: Luminescence counterscreen assay for p97 inhibitors: dose response biochemical high throughput screening assay to identify inhibitors of the C522A mutant p97 ATPase: synthesized compounds. [Related pubchem assays: 1481, 1517, 1551 ]
[7] = molecular target: Transitional endoplasmic reticulum ATPase (Homo sapiens, UniProt P55072); assay: Luminescence dose response biochemical high throughput screening assay for inhibitors of the p97 ATPase: synthesized compounds. [Related pubchem assays: 1481, 1517 ]
[8] = molecular target: Peroxisome proliferator-activated receptor gamma/Nuclear receptor corepressor 2 (Homo sapiens, UniProt P37231+Q9Y618); assay: Counterscreen for NR2E3 inverse agonists: TR-FRET-based biochemical high throughput dose response assay to identify inverse agonists of the interaction between peroxisome proliferator-activated receptor gamma (PPARg) and nuclear receptor co-repressor 2 (NCOR2).; assay type: functional
[9] = molecular target: Photoreceptor-specific nuclear receptor (Homo sapiens, UniProt Q9Y5X4); assay: NR2E3 inverse agonists, dose response, biochemical, TR-FRET (AID 463256); assay type: functional
[10] = molecular target: T2, RNA-binding protein pos-1 (Caenorhabditis elegans, UniProt G5EF15); assay: inhibitors of POS-1/mex-3 RNA binding, dose response, biochemical, fluorescence polarization (AID 1964);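 also: purified POS-1 fused to maltose binding protein made in E. coli; potency of compounds blocking POS-1 binding to fluorescent RNA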
T2 sequence (G5EF15 whole entry): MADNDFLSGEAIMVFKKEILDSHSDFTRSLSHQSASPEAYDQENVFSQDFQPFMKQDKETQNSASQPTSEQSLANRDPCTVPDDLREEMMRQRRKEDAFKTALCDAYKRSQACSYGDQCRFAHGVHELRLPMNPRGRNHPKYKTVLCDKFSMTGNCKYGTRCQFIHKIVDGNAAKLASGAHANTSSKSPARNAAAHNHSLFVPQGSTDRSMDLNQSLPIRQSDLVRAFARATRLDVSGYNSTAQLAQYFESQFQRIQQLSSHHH

[11] = Luminescence Cell-Based Dose Confirmation HTS to Identify Inhibitors of Platelet Dense Granule Release. [Related pubchem assays: 1663 (Primary HTS), 1678 (Summary of Project)]; assay type: functional
[12] = ADAM10 protease inhibitors, dose response, selectivity assay for ADAM17 exosite inhibitor project, biochemical, FRET peptide substrate, recombinant human ADAM10 (AID 743259);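 also: ADAM10 enzyme cleaving a FRET peptide substrate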
[13] = molecular target: Disintegrin and metalloproteinase domain-containing protein 17 (Homo sapiens, UniProt P78536); assay: exosite inhibitors of ADAM17, dose response, biochemical (AID 743260)
[14] = Escherichia coli growth inhibition, dose response, counter-screen for MEX-5/POS-1 RNA-binding inhibitor project, luminescence, NEB5alpha (AID 1959); assay type: functional
[15] = enhancers of respiration in Yfh1-depleted yeast, dose response, Friedreich's ataxia, plus single-dose screen (AID 1465); assay type: functional;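 also: yeast depleted of Yfh1p frataxin homolog grown on glycerol needing respiration; WST-1 tetrazolium dye reduction as measure of cellular dehydrogenase metabolic activity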
[16] = molecular target: Luciferin 4-monooxygenase (Photinus pyralis, UniProt P08659); assay: firefly luciferase enzyme inhibitors, dose response, biochemical, luminescence (AID 1891)
Luciferin 4-monooxygenase, sequence (P08659 whole entry): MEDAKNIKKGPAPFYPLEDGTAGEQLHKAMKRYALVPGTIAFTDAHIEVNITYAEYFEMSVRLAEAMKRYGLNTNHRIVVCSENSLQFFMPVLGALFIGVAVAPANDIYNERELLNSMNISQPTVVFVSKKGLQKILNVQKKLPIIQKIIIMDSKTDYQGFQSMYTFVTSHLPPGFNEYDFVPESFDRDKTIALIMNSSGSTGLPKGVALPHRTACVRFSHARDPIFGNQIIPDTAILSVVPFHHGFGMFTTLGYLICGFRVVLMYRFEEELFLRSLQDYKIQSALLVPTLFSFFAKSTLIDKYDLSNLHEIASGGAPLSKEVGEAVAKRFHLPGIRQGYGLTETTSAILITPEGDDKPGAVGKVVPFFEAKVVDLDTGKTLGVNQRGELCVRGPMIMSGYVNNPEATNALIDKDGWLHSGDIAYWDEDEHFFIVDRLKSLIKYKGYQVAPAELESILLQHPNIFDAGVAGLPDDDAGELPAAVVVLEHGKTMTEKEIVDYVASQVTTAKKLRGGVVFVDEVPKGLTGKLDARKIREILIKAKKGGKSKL

Transitional endoplasmic reticulum ATPase (Homo sapiens, UniProt P55072), sequence (P55072 whole entry): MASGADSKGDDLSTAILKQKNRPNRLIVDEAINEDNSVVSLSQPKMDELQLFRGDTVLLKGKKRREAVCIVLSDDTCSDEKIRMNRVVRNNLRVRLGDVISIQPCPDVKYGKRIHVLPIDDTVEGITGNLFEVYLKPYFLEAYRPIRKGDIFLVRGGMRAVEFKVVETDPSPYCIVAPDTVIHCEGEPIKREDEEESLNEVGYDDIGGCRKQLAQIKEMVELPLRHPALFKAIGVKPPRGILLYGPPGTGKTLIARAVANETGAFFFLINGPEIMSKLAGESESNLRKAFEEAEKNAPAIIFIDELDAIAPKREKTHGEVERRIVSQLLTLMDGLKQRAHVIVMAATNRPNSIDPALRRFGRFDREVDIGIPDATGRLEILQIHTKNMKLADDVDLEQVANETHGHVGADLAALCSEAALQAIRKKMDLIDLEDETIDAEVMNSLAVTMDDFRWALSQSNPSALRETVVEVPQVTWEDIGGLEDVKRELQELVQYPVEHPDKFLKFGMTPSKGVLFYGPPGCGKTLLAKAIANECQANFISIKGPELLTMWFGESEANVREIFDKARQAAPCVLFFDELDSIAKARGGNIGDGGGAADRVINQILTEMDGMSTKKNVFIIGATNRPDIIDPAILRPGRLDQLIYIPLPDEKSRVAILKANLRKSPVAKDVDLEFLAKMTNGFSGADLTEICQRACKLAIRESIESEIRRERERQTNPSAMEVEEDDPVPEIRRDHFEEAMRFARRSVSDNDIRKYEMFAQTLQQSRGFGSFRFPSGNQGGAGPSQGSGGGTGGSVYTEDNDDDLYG
Peroxisome proliferator-activated receptor gamma/Nuclear receptor corepressor 2, sequence (P37231 whole entry): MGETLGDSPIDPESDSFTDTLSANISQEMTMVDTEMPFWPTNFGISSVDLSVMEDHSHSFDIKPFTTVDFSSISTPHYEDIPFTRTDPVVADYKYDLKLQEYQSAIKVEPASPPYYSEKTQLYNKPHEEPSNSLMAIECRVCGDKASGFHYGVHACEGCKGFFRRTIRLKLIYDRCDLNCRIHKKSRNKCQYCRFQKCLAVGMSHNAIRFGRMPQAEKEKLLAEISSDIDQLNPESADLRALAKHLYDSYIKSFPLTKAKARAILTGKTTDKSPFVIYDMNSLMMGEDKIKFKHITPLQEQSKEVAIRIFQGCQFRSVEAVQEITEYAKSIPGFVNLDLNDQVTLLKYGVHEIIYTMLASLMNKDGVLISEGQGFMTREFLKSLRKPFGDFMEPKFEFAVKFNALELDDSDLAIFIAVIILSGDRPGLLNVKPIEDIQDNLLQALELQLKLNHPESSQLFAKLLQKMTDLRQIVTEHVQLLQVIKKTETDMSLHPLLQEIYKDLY
Peroxisome proliferator-activated receptor gamma/Nuclear receptor corepressor 2, sequence (Q9Y618 whole entry): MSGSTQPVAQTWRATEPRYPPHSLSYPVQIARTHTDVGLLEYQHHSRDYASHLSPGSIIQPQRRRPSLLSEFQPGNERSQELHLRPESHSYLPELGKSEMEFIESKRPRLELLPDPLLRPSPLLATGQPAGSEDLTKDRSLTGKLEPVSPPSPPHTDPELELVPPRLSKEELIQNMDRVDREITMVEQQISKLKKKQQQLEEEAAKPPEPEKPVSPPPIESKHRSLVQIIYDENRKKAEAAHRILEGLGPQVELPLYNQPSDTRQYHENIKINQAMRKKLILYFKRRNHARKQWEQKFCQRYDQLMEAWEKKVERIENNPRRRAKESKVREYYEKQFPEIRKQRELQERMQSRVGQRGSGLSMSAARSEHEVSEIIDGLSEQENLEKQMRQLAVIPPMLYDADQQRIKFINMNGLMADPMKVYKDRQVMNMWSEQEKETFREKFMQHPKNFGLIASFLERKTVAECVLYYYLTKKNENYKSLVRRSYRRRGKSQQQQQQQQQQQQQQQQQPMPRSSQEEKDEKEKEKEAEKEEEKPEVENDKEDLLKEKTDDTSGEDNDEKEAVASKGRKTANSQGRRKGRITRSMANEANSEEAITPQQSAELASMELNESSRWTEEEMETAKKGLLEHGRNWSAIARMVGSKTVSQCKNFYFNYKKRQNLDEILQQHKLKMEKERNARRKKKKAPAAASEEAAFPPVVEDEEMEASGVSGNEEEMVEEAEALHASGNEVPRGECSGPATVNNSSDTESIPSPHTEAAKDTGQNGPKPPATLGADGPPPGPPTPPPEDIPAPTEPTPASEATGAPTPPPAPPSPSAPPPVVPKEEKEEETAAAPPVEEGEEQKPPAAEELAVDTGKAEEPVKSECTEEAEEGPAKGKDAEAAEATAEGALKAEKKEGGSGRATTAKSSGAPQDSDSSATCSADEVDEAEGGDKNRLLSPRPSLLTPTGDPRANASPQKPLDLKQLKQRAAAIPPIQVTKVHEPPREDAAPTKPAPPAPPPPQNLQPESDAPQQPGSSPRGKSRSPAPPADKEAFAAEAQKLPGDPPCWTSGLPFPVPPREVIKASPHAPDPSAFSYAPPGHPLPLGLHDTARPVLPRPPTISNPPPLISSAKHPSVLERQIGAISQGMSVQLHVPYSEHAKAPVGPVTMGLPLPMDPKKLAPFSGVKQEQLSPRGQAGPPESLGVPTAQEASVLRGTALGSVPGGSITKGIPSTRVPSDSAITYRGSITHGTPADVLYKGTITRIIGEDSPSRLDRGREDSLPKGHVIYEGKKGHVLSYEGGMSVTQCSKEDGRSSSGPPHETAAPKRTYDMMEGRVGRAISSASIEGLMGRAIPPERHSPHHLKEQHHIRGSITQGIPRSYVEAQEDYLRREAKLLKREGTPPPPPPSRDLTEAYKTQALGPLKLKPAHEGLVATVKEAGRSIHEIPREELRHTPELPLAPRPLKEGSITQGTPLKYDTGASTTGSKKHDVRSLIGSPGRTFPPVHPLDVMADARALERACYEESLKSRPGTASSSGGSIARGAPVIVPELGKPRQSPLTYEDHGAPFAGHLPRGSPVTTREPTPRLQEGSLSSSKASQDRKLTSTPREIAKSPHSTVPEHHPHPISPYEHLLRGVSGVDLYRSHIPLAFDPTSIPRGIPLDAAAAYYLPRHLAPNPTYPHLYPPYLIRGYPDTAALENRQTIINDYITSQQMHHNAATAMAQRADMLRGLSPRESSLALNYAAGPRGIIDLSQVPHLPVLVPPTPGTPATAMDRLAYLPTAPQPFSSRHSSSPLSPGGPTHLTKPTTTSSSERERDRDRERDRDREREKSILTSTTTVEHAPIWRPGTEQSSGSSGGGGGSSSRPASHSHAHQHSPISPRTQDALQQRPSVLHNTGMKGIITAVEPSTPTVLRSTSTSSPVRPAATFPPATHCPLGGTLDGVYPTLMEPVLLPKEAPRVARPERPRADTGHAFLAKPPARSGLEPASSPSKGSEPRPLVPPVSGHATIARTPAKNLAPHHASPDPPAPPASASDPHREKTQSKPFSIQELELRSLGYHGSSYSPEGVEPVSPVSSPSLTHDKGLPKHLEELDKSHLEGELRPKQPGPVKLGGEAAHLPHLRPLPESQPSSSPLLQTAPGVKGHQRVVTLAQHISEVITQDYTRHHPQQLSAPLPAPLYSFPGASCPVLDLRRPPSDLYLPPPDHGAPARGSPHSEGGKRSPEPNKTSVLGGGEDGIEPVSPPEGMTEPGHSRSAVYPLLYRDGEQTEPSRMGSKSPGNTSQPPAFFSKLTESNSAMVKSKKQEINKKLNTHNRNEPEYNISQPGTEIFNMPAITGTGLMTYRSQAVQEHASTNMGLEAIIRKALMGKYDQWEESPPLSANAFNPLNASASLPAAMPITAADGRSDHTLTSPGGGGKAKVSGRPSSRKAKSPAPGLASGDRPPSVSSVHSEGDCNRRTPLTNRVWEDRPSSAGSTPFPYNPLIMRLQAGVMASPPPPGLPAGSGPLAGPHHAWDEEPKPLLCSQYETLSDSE
Epstein-Barr nuclear antigen 1, sequence (P03211 whole entry): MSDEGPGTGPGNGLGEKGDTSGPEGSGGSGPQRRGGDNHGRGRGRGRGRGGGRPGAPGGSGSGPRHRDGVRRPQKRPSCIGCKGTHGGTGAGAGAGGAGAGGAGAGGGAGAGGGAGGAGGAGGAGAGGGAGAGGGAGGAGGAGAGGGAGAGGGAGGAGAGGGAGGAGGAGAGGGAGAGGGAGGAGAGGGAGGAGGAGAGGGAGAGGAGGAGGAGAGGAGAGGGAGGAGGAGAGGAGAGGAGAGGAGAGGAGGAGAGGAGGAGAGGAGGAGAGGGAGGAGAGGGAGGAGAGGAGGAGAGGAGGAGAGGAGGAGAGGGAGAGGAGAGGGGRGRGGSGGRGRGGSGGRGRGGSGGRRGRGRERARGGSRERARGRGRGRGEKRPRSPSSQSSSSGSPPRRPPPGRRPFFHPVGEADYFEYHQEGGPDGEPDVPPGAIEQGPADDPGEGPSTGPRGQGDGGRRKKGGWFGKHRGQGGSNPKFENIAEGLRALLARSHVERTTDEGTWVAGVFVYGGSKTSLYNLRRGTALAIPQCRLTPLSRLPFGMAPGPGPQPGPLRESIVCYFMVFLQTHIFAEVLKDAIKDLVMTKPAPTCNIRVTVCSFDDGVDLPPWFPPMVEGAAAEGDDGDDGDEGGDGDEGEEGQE

Compound: CC(=O)OCC[N+](C)(C)C
IC50 (Galanin receptor type 3): 1.66 µM (active)
IC50 [1]: > 35 µM (not active)
EC50 [2]: 0.0667 µM (active)
EC50 (cells): > 29.9 µM (inactive)
IC50 [3]: > 35 µM (not active)

Compound: CCOc1ccc(N/N=C2/C(=O)Nn3c2nc(C)cc3=O)cc1
EC50 [10]: 213 µM (active)
EC50 [11]: 9.37 µM (active)
IC50 [12]: 24.7 µM (inactive)
IC50 [13]: > 69.5 µM (inactive)
EC50 [14]: 16.2 µM (active)
EC50 [15]: > 100 µM (active)
EC50 [16]: 0.535 µM (active)

The next lines start with the values.

IC50 [4]: > 111 µM (not active)
IC50 [5]: 39 µM (not active)
Compound: COC(=O)c1ccc2nc(NC(=O)CCS(=O)(=O)c3ccccc3)sc2c1

IC50 [6]: > 50 µM (not active)
IC50 [7]: > 50 µM (not active)
Compound: CCOC(=O)/C(C#N)=C/c1ccc([N+](=O)[O-])cc1

IC50 [8]: > 4.43 µM (active)
IC50 [9]: > 4.43 µM (active)
Compound: CCCS(=O)(=O)N1CCC(C(=O)NCCCN(CC)c2cccc(C)c2)CC1
